# In ChEMBL document CHEMBL3046689, “Volatile aldehydes are promising broad-spectrum postharvest insecticides” (J Agric Food Chem, 2000):
# Active and inactive are the calls of the source. The rule behind the calls is not given here.
# How the values were obtained:
# Citrus x paradisi [1] = test: Phytotoxicity in Citrus x paradisi (grape fruit) assessed as induction of visual damage after compound application for 1 hr through two-tier reduced pressure fumigation at 30 mmHg for 0.5 hr and then 760 mmHg for 1.5 hr at 23 +/- 1 degC; type: organism-based; conditions: in vivo
# Vitis vinifera [2] = test: Phytotoxicity in Vitis vinifera assessed as induction of olfactory damage after compound application for 1 hr through two-tier reduced pressure fumigation at 30 mmHg for 0.5 hr and then 760 mmHg for 1.5 hr at 23 +/- 1 degC; type: organism-based; conditions: in vivo
# Citrus sinensis = test: Phytotoxicity in Citrus sinensis (orange) assessed as induction of olfactory damage after compound application for 1 hr through two-tier reduced pressure fumigation at 30 mmHg for 0.5 hr and then 760 mmHg for 1.5 hr at 23 +/- 1 degC; type: organism-based; conditions: in vivo
# [3] = tested on: Brassica oleracea var. capitata; test: Phytotoxicity in Brassica oleracea var. capitata (cabbage) after compound application for 1 hr through two-tier reduced pressure fumigation at 30 mmHg for 0.5 hr and then 760 mmHg for 1.5 hr at 23 +/- 1 degC; type: organism-based; conditions: in vivo
# Lactuca sativa [4] = test: Phytotoxicity in naked Lactuca sativa (lettuce) assessed as change in visual quality after compound application through two-tier reduced pressure fumigation at 30 mmHg for 0.5 hr and then 760 mmHg for 1.5 hr at 23 +/- 1 degC after 2 hr; type: organism-based; conditions: in vivo
# [5] = tested on: Brassica oleracea var. italica; test: Phytotoxicity in Brassica oleracea var. italica after compound application for 1 hr through two-tier reduced pressure fumigation at 30 mmHg for 0.5 hr and then 760 mmHg for 1.5 hr at 23 +/- 1 degC; type: organism-based; conditions: in vivo
# Citrus x paradisi [6] = test: Phytotoxicity in Citrus x paradisi (grape fruit) assessed as induction of olfactory damage after compound application for 1 hr through two-tier reduced pressure fumigation at 30 mmHg for 0.5 hr and then 760 mmHg for 1.5 hr at 23 +/- 1 degC; type: organism-based; conditions: in vivo
# Lactuca sativa [7] = test: Phytotoxicity in wrapped Lactuca sativa (lettuce) assessed as induction of olfactory damage after compound application for 1 hr through two-tier reduced pressure fumigation at 30 mmHg for 0.5 hr and then 760 mmHg for 1.5 hr at 23 +/- 1 degC; type: organism-based; conditions: in vivo
# Myzus persicae = test: Insecticidal activity against Myzus persicae (green peach aphid) infested wrapped lettuce applied for 1 hr through two-tier reduced pressure fumigation at 30 mmHg for 0.5 hr and then 760 mmHg for 1.5 hr at 23 +/- 1 degC measured 24 hr; type: functional, organism-based
# Vitis vinifera [8] = test: Phytotoxicity in Vitis vinifera assessed as induction of visual damage after compound application for 1 hr through two-tier reduced pressure fumigation at 30 mmHg for 0.5 hr and then 760 mmHg for 1.5 hr at 23 +/- 1 degC; type: organism-based; conditions: in vivo
smiles,measurement,setting,value
CCC=O [PROPIONALDEHYDE],Activity,Citrus x paradisi [1],Non-toxic
same,Activity,Vitis vinifera [2],Non-toxic
same,Activity,Citrus sinensis,Non-toxic
same,Activity,[3],Toxic
same,Activity,Lactuca sativa [4],Toxic
same,Activity,[5],Toxic
same,Activity,Citrus x paradisi [6],Non-toxic
same,Activity,Lactuca sativa [7],Toxic
same,Activity,Myzus persicae,Active
same,Activity,Vitis vinifera [8],Non-toxic
